pIC50: −log10 of the molar value. Calls of active or inactive are those of the source. The rule behind the calls is not given here.
Tests used:
[1] = test system: RAW264.7; experiment: In vitro inhibition of NO production at 40 uM concentration in RAW 264.7 cells; assay type: functional; conditions: Mus musculus
[2] = molecular target: T1, Prostaglandin G/H synthase 2 (Ovis aries, UniProt P79208); experiment: In vitro inhibition of Prostaglandin G/H synthase 2 from sheep placental cotyledons; No activity
T1 sequence (P79208 whole entry): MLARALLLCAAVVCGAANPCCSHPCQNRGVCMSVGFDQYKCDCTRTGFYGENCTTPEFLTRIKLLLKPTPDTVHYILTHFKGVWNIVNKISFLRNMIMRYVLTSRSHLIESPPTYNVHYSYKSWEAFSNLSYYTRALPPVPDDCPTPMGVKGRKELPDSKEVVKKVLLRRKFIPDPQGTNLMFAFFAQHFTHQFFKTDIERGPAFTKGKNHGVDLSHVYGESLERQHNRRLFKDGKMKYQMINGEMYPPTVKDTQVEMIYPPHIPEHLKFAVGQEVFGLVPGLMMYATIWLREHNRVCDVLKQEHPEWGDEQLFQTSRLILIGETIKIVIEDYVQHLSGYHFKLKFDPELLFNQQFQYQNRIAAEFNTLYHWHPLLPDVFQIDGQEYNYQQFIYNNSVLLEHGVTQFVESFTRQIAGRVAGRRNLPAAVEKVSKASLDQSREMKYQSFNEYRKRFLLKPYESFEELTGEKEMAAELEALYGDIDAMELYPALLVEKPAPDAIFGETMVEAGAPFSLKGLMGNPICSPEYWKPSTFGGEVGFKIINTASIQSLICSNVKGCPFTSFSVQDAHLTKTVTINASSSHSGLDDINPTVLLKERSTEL

[3] = molecular target: T1, Prostaglandin G/H synthase 2; experiment: In vitro inhibition of Prostaglandin G/H synthase 2 from sheep placental cotyledons
[4] = test system: RAW264.7; experiment: In vitro inhibition of NO production at 40 uM concentration in RAW 264.7 cells; No activity; assay type: functional, cell-based; conditions: Mus musculus

C=C[C@@]1(C)CC=C2C(CCC3[C@@]2(C)CCC[C@@]3(C)/C=C/C(=O)O)C1 (stereo not given in full)
inhibition at 40 µM [1]: 45.1%

C=C[C@@]1(C)CC=C2C(CCC3[C@](C)(CO)CCC[C@@]23C)C1 (stereo not given in full) [ACANTHOL]
IC50 [2]: Not Active | inhibition at 40 µM [1]: 84.8%

C=C[C@@]1(C)CC=C2C(CCC3[C@](C)(CCC(=O)O)CCC[C@@]23C)C1 (stereo not given in full)
inhibition at 40 µM [1]: 23%

C=C[C@@]1(C)CC=C2C(CCC3[C@](C)(CCC(=O)NS(=O)(=O)c4ccc(I)cc4)CCC[C@@]23C)C1 (stereo not given in full)
inhibition at 40 µM [1]: 99.5% | pIC50 [3]: 4.22

C=C[C@@]1(C)CC=C2C(CCC3[C@](C)(CC(=O)NS(=O)(=O)c4ccc(I)cc4)CCC[C@@]23C)C1 (stereo not given in full)
inhibition at 40 µM [1]: 94.6% | pIC50 [3]: 4.14

C=C[C@@]1(C)CC=C2C(CCC3[C@](C)(CCCCC(=O)O)CCC[C@@]23C)C1 (stereo not given in full)
inhibition at 40 µM [1]: 99%

C=C[C@@]1(C)CC=C2C(CCC3[C@](C)(CCCC(=O)O)CCC[C@@]23C)C1 (stereo not given in full)
inhibition at 40 µM [1]: 65.2%

C=C[C@@]1(C)CC=C2C(CCC3[C@](C)(CCC/C=C/C(=O)O)CCC[C@@]23C)C1 (stereo not given in full)
inhibition at 40 µM [1]: 98.2% | pIC50 [3]: 4.42

C=C[C@@]1(C)CC=C2C(CCC3[C@](C)(C(=O)n4ccnc4)CCC[C@@]23C)C1 (stereo not given in full)
IC50 [2]: Not Active | inhibition at 40 µM [1]: 99%

C=C[C@@]1(C)CC=C2C(CCC3[C@](C)(CC(=O)O)CCC[C@@]23C)C1 (stereo not given in full)
inhibition [4]: inactive

C=C[C@@]1(C)CC=C2C(CCC3[C@](C)(C/C=C\C(=O)O)CCC[C@@]23C)C1 (stereo not given in full)
inhibition at 40 µM [1]: 77.9%

C=C[C@@]1(C)CC=C2C(CCC3[C@@]2(C)CCC[C@@]3(C)/C=C/C=C/C(=O)O)C1 (stereo not given in full)
inhibition at 40 µM [1]: 96.5%

C=C[C@@]1(C)CC=C2C(CCC3[C@](C)(C(=O)NN)CCC[C@@]23C)C1 (stereo not given in full)
inhibition at 40 µM [1]: 3.4%

C=C[C@@]1(C)CC=C2C(CCC3[C@](C)(C(=O)NC)CCC[C@@]23C)C1 (stereo not given in full)
IC50 [2]: Not Active | inhibition at 40 µM [1]: 85.3%
